# From the OligoGym collection
# HELM strings list units from the 5' end as sugar, base in round brackets, then linkage (d deoxyribose, r ribose, m 2'-O-methyl, p phosphodiester). Strings are as the collection lists them; they lack the last nucleoside at the 3' end of the tested compound. [moe] = 2'-O-(2-methoxyethyl) (MOE); [sp] = phosphorothioate linkage; [m5C] = 5-methylcytosine
# Biological target: UBE3A-ATS
# Assay: mouse, dose not given
# Details: ASO
row,Substance,3 h FOB score
1,RNA1{[moe]([m5C])[sp].[moe](T)p.[moe]([m5C])p.[moe](A)[sp].d(G)[sp].d(T)[sp].d(T)[sp].d(A)[sp].d(G)[sp].d(G)[sp].d(T)[sp].d(T)[sp].[moe](A)p.[moe](G)p.[moe](T)p.[moe](G)[sp].[moe]([m5C])}$$$$ (last 3' nucleoside missing),5.3 score 0-7
2,RNA1{[moe]([m5C])[sp].[moe](T)p.[moe]([m5C])p.[moe](A)p.[moe](G)[sp].d(T)[sp].d(T)[sp].d(A)[sp].d(G)[sp].d(G)[sp].d(T)[sp].d(T)[sp].d(A)[sp].[moe](G)p.[moe](T)p.[moe](G)[sp].[moe]([m5C])}$$$$ (last 3' nucleoside missing),1.3 score 0-7
3,RNA1{[moe]([m5C])[sp].[moe](T)p.[moe]([m5C])p.[moe](A)p.[moe](G)p.[moe](T)[sp].d(T)[sp].d(A)[sp].d(G)[sp].d(G)[sp].d(T)[sp].d(T)[sp].d(A)[sp].d(G)[sp].[moe](T)p.[moe](G)[sp].[moe]([m5C])}$$$$ (last 3' nucleoside missing),6.3 score 0-7
4,RNA1{[moe]([m5C])[sp].[moe](T)p.[moe]([m5C])p.[moe](A)p.[moe](G)p.[moe](T)p.d(T)[sp].d(A)[sp].d(G)[sp].d(G)[sp].d(T)[sp].d(T)[sp].d(A)[sp].d(G)[sp].d(T)[sp].d(G)[sp].[moe]([m5C])p.[moe](A)[sp].[moe]([m5C])}$$$$ (last 3' nucleoside missing),4 score 0-7
5,RNA1{[moe]([m5C])[sp].[moe](T)p.[moe]([m5C])p.[moe](A)p.[moe](G)p.d(T)[sp].d(T)[sp].d(A)[sp].d(G)[sp].d(G)[sp].d(T)[sp].d(T)[sp].d(A)[sp].d(G)[sp].d(T)[sp].[moe](G)p.[moe]([m5C])p.[moe](A)[sp].[moe]([m5C])}$$$$ (last 3' nucleoside missing),6 score 0-7
6,RNA1{[moe]([m5C])[sp].[moe](T)p.[moe]([m5C])p.[moe](A)p.d(G)[sp].d(T)[sp].d(T)[sp].d(A)[sp].d(G)[sp].d(G)[sp].d(T)[sp].d(T)[sp].d(A)[sp].d(G)[sp].[moe](T)p.[moe](G)p.[moe]([m5C])p.[moe](A)[sp].[moe]([m5C])}$$$$ (last 3' nucleoside missing),4 score 0-7
7,RNA1{[moe]([m5C])[sp].[moe](T)p.[moe]([m5C])p.[moe]([m5C])p.[moe](A)p.d(G)[sp].d(T)[sp].d(T)[sp].d(T)[sp].d(T)[sp].d([m5C])[sp].d(G)[sp].d([m5C])[sp].d([m5C])[sp].d([m5C])[sp].[moe](G)p.[moe](T)p.[moe](T)[sp].[moe](A)}$$$$ (last 3' nucleoside missing),3.3 score 0-7
8,RNA1{[moe]([m5C])[sp].[moe]([m5C])p.[moe](A)p.[moe](A)p.[moe](T)p.d(A)[sp].d(T)[sp].d(T)[sp].d(T)[sp].d(T)[sp].d(G)[sp].d(A)[sp].d([m5C])[sp].d(T)[sp].d(A)[sp].[moe](G)p.[moe](T)p.[moe](T)[sp].[moe]([m5C])}$$$$ (last 3' nucleoside missing),4.2 score 0-7
9,RNA1{[moe]([m5C])[sp].[moe]([m5C])p.[moe](A)p.[moe](A)p.[moe]([m5C])p.d(T)[sp].d(T)[sp].d([m5C])[sp].d(A)[sp].d(T)[sp].d([m5C])[sp].d(A)[sp].d(A)[sp].d(T)[sp].d(A)[sp].[moe](T)p.[moe](T)p.[moe](T)[sp].[moe]([m5C])}$$$$ (last 3' nucleoside missing),0 score 0-7
10,RNA1{[moe]([m5C])[sp].[moe]([m5C])p.[moe](A)p.[moe](G)p.[moe](G)p.d(T)[sp].d(G)[sp].d(T)[sp].d([m5C])[sp].d(T)[sp].d(T)[sp].d(A)[sp].d(T)[sp].d(A)[sp].d(T)[sp].[moe]([m5C])p.[moe](T)p.[moe](A)[sp].[moe](T)}$$$$ (last 3' nucleoside missing),1 score 0-7
11,RNA1{[moe]([m5C])[sp].[moe]([m5C])p.[moe](A)p.[moe](G)p.[moe](T)p.d(T)[sp].d(T)[sp].d(T)[sp].d([m5C])[sp].d(G)[sp].d([m5C])[sp].d([m5C])[sp].d([m5C])[sp].d(G)[sp].d(T)[sp].[moe](T)p.[moe](A)p.[moe]([m5C])[sp].[moe]([m5C])}$$$$ (last 3' nucleoside missing),4.5 score 0-7
12,RNA1{[moe]([m5C])[sp].[moe]([m5C])p.[moe](A)p.[moe](G)p.[moe]([m5C])p.d([m5C])[sp].d(A)[sp].d(G)[sp].d(G)[sp].d(T)[sp].d(G)[sp].d(T)[sp].d([m5C])[sp].d(T)[sp].d(T)[sp].[moe](A)p.[moe](T)p.[moe](A)[sp].[moe](T)}$$$$ (last 3' nucleoside missing),3.8 score 0-7
13,RNA1{[moe]([m5C])[sp].[moe]([m5C])p.[moe](A)p.[moe](T)p.[moe](T)p.d(T)[sp].d(T)[sp].d(G)[sp].d(A)[sp].d([m5C])[sp].d([m5C])[sp].d(T)[sp].d(T)[sp].d([m5C])[sp].d(T)[sp].[moe](T)p.[moe](A)p.[moe](G)[sp].[moe]([m5C])}$$$$ (last 3' nucleoside missing),1 score 0-7
14,RNA1{[moe]([m5C])[sp].[moe]([m5C])p.[moe](A)p.[moe](T)p.[moe](T)p.d([m5C])[sp].d(A)[sp].d(G)[sp].d([m5C])[sp].d(A)[sp].d([m5C])[sp].d(T)[sp].d(T)[sp].d(A)[sp].d(G)[sp].[moe](G)p.[moe](T)p.[moe](A)[sp].[moe](G)}$$$$ (last 3' nucleoside missing),3.7 score 0-7
15,RNA1{[moe]([m5C])[sp].[moe]([m5C])p.[moe](A)p.[moe]([m5C])p.[moe](A)p.d([m5C])[sp].d(A)[sp].d(T)[sp].d(A)[sp].d(T)[sp].d(A)[sp].d(G)[sp].d(G)[sp].d([m5C])[sp].d(T)[sp].[moe](A)p.[moe](G)p.[moe]([m5C])[sp].[moe]([m5C])}$$$$ (last 3' nucleoside missing),1 score 0-7
16,RNA1{[moe]([m5C])[sp].[moe]([m5C])p.[moe](T)p.[moe](A)p.[moe](T)p.d(A)[sp].d(G)[sp].d(G)[sp].d(T)[sp].d(G)[sp].d(G)[sp].d([m5C])[sp].d([m5C])[sp].d(T)[sp].d(T)[sp].[moe]([m5C])p.[moe](A)p.[moe](G)[sp].[moe](T)}$$$$ (last 3' nucleoside missing),5 score 0-7
17,RNA1{[moe]([m5C])[sp].[moe]([m5C])p.[moe](T)p.[moe](T)p.[moe](T)p.d([m5C])[sp].d(T)[sp].d(A)[sp].d(T)[sp].d(T)[sp].d(T)[sp].d([m5C])[sp].d(A)[sp].d(G)[sp].d(A)[sp].[moe]([m5C])p.[moe]([m5C])p.[moe](G)[sp].[moe](A)}$$$$ (last 3' nucleoside missing),2.3 score 0-7
18,RNA1{[moe]([m5C])[sp].[moe]([m5C])p.[moe](T)p.[moe]([m5C])p.[moe](T)p.d(T)[sp].d([m5C])[sp].d([m5C])[sp].d(A)[sp].d(A)[sp].d(A)[sp].d(A)[sp].d(T)[sp].d(T)[sp].d([m5C])[sp].[moe](T)p.[moe]([m5C])p.[moe](A)[sp].[moe]([m5C])}$$$$ (last 3' nucleoside missing),0 score 0-7
19,RNA1{[moe]([m5C])[sp].[moe]([m5C])p.[moe]([m5C])p.[moe](A)p.[moe](T)p.d(T)[sp].d(A)[sp].d(G)[sp].d(A)[sp].d([m5C])[sp].d([m5C])[sp].d([m5C])[sp].d(A)[sp].d(T)[sp].d(G)[sp].[moe](G)p.[moe]([m5C])p.[moe](T)[sp].[moe]([m5C])}$$$$ (last 3' nucleoside missing),7 score 0-7
20,RNA1{[moe]([m5C])[sp].[moe]([m5C])p.[moe]([m5C])p.[moe](A)p.[moe](T)p.d(T)[sp].d([m5C])[sp].d(A)[sp].d(G)[sp].d([m5C])[sp].d(A)[sp].d([m5C])[sp].d(T)[sp].d(T)[sp].d(A)[sp].[moe](G)p.[moe](G)p.[moe](T)[sp].[moe](A)}$$$$ (last 3' nucleoside missing),4.8 score 0-7
